Among the data in a melting point compilation (Tetko et al.; mined from patent text by program, amines drawn as free bases though some values may be those of a salt) are melting point values, retold here.

Residues, ends and D or L forms follow the SMILES beside them. *: point of attachment. For = O=C*

As usually defined, the melting point is the temperature, or range, at which the solid turns liquid. `O=C1C(=O)c2ccccc2C2=C1SCC1(CCN(CCc3ccccc3)CC1)O2` yielded a melting point of 117 to 118 °C.
For `Cn1c(=O)[nH]c2nc3ccc(OCCCC(=O)NC4CCCCC4)cc3cc21`, the melting point lay in the range of 282 to 284 °C.
As to `CCCCC1OC(=O)c2cc(NC(N)=S)ccc21` (stereo not drawn), the melting point lay in the range of 183 to 185 °C.
In turn, `O=C(NCC(=O)c1cccs1)c1ccc(Cl)cc1` displayed a melting point of 157 to 159 °C.
Then `Cc1ccc(OC2SCC(O)C(O)C2O)c(F)n1` (stereo not drawn), with 167 to 170 °C; and `C=CCc1cc(OCCOC)ccc1OCC1(O)CN2CCC1CC2` (stereo not drawn), with 58 to 60 °C.
`CCOC(=O)c1ccc(-c2ccc(OCCCN)c(-c3ccc4c(c3)C(C)(C)CCC4(C)C)c2)cc1`: the melting point was 155 °C.
Take `ICC1COc2ccccc2O1` (stereo not drawn): the melting point fell in the range of 38 to 40 °C.
Then `CC12C=CC(=O)C=C1CCC1C3CC(OCCOC4CCCCO4)C(O)(C(=O)CCl)C3(C)CC(O)C12F` (stereo not drawn), with 168 to 170 °C; and `COc1ccc(CCNC(=O)C(=O)Nc2cccnc2)cc1OC1CCCC1`, with 167 °C.
The figure for `O=C(c1cc(N2CCOCC2)ccn1)N(O)Cc1ccccc1` is 105 to 110 °C.
The compound `O=C1N(c2ccc(Cl)cc2F)C(=S)C2CCCCC12O` (stereo not drawn) had a melting point of 156 to 157 °C.
On to `O=Cc1cc(Oc2ccc(C(F)(F)F)cc2Cl)ccc1[N+](=O)[O-]`, for which the melting point is 95 °C.
In turn, `CCCCCCCCC(O)CNCCCCCCNCC(O)CCCCCCCC` (stereo not drawn) had a melting point of 118 to 127 °C.
As for `COc1ccc(-c2n[nH]c3ccc([N+](=O)[O-])cc23)cc1`, the melting point is 153 °C.
`O=C(O)CCCn1c(=O)c2ccccc2n(CCCCN2CCC(OC(c3ccccc3)c3ccccc3)CC2)c1=O` came in with a melting point of 132 to 133 °C.
In turn, `FC(F)c1nc2ccccc2n1-c1nc(Nc2cnc3ccccc3c2)nc(N2CCOCC2)n1` returned a melting point of 270 to 273 °C.
As for `Cc1cc(-n2cncn2)cc(C#N)c1N`, the melting point fell in the range of 231 to 233 °C.
`O=C(NCC12CC3CC(CC(C3)C1)C2)c1cc(-c2ccc(F)cc2C(=O)O)ccc1Cl` registered a melting point of 126 to 128 °C.
For `CC(C)(CO)COc1ccc(N)cc1C#N`, the melting point lay within 194 to 196 °C.
`CCC(=O)N(C)c1ccc(C(=O)C=CN(C)C)cc1` showed a melting point of 76 to 78 °C.
Then `COCCNC(=O)c1ccc(-c2ccc3nnn(Cc4ccc5ncccc5c4)c3n2)cc1F`, with 162 to 164 °C.
Then `CCCCCC(=O)Nc1nnc(C)s1`, with 203 °C; and `CCc1cc(OC)cc(=O)o1`, with 54 to 55 °C.
`CCCCCCOC(=O)C(CSC(=O)C(C)c1ccc(CC(C)C)cc1)NC(C)=O` (stereo not drawn) yielded a melting point of 40 to 45 °C.
For the compound `C=CCCCCCCCCc1nc2c(s1)NCCCC2`, the melting point was in the range of 94 to 95 °C.
`COC(=O)c1nccnc1NCc1ccncc1` gave a melting point of 95 °C.
The compound `Cc1c(CN(C)C)cc(C(C)(C)C)c(O)c1C` registered a melting point of 101 to 104 °C.
With `O=c1c2ccc(Cl)cc2[nH]c2c(O)nn(Cc3ccoc3)c(=O)c12`, the melting point is > 250 °C.
Compound `CS(=O)(=O)c1cccc(-c2ccccc2N)c1` showed a melting point of 114 to 115 °C.
For `CN1CCC[C@H](OCc2cc(C(F)(F)F)cc(C(F)(F)F)c2)[C@@H]1c1ccccc1`, the melting point was 40 to 42 °C.
The compound `CCCCCCCCc1ccc(OCC(=O)Cn2cccn2)cc1` gave a melting point of 85 to 87 °C.
Then `CCCCC(=O)Nc1c(C)c(C)c2c(c1C)C(c1ccc(C(C)C)cc1)C(C)(C)O2` (stereo not drawn), with 106 to 107 °C.
`O=C(Nc1cccc(Br)c1)c1ccccc1SSc1ccccc1C(=O)Nc1cccc(Br)c1` yielded a melting point of 194 to 196 °C.
Compound `CC(C)N1CC2(COc3ccccc3OC2)OC1=O` registered a melting point of 118 to 120 °C.
In turn, `CN(c1cccc2cc(C3=NCC(CC(=O)N4CCC[C@H]4C(=O)O)S3)[nH]c12)S(=O)(=O)c1ccccc1C(F)(F)F` (stereo partly drawn) showed a melting point of 132 to 135 °C.
As to `COc1ccc(C(=O)c2ccc(Br)cc2)c(F)c1`, the melting point is 125 to 126 °C.
In the case of `O=C(O)C1Cc2c(c(Cl)cc3c(=O)c4ccccc4oc23)O1` (stereo not drawn), the melting point was 292 to 295 °C.
`OC(CCC1CCN(Cc2ccccc2)CC1)c1ccc(N2CCCC2)cc1` (stereo not drawn) showed a melting point of 93 to 95 °C.
The figure for `Cc1nccn1-c1ccc(-c2cnc([C@H](Cc3ccccn3)N(C=O)c3cc4ccccc4o3)n2C)cc1` is 167 to 171 °C; for `Clc1nccc(N2CCC3(CC2)COc2ccccc23)c1Cl` it is 177 °C.
As to `C=CC(=O)NC[C@H](O)[C@@H](O)[C@H](O)[C@H](O)CO`, the melting point lay within 122 to 123 °C.
Turning to `Nc1ccc2c(c1)c(-c1ccc(CO)o1)nn2Cc1ccccc1`, the melting point was 156 °C.
In turn, `CCc1nc2c(cnn2CC)c(NC2CCOCC2)c1CNC(=O)c1cc(C)cc(C(=O)NCc2cccc(-c3cccc(CC4CCNCC4)c3)c2)c1` yielded a melting point of 130 to 132 °C.
Compound `Nc1nc(Cl)cc(OC(F)F)n1` showed a melting point of 118 to 119 °C.
Then `O=C1CCC(c2ccccc2F)=NN1`, with 119 to 121 °C; and `Cc1ccc(C)c([PH](=O)O)c1`, with 73 to 80 °C; and `CCCc1ccc(C2c3c(C)cc(C)c(C)c3OC2(C)C)cc1` (stereo not drawn), with 69 to 70 °C.
For `COC(=O)C(Cc1ccccc1)NC(=O)C(CC(=O)O)NC=O` (stereo not drawn) (For-Asp-Phe-OMe; configuration not given here), the melting point worked out at 124 °C.
Then `CC(C)(C)C(=O)C(=CC1CCCCC1)n1cncn1`, with 98 °C; and `COc1cccc(-n2[nH]c(Cc3c(C)n(C(=O)c4ccc(Cl)cc4)c4ccc(OC)cc34)cc2=O)c1`, with 102 to 104 °C.
In turn, `Cc1ccn(-c2ccc(C(=O)N3Cc4cccnc4Nc4ccccc43)c(Cl)c2)n1` showed a melting point of 192 to 193 °C.
As for `Cc1nc2c(-c3cccc(N4C[C@@H](C)O[C@@H](C)C4)c3)cnn2c(N)c1-c1cccc(Cl)c1`, the melting point fell in the range of 165 to 167 °C.
In turn, `CC(=O)N1CCC(Oc2c(F)c(F)c(F)c(F)c2F)(c2ccccc2)CC1` gave a melting point of 115 to 120 °C.
`CC1(C)OC[C@H](CCOc2c(C(C)(C)C)cc(SC(C)(C)Sc3cc(C(C)(C)C)c(O)c(C(C)(C)C)c3)cc2C(C)(C)C)O1` came in with a melting point of 44 to 46 °C.
The figure for `O=C(O)CCCC1Cc2ccc(Cl)cc2C1=O` (stereo not drawn) is 141 to 142 °C; for `COc1ccc(N2CCN(c3ccc(-n4c(C)nnc4S)cc3)CC2)cc1` it is 260 °C; for `CCn1cc(C(=O)O)c(=O)c2cc(F)c(Cl)nc21` it is 265 to 267 °C.
As for `COC(=O)c1ccc(N2CCC[C@H](N(Cc3cc(C(F)(F)F)cc(C(F)(F)F)c3)c3nnn(C)n3)c3cc(C)c(C(F)(F)F)cc32)cc1`, the melting point was in the range of 101 to 105 °C.
Take `CCCC(C)(Br)C(=O)Nc1ccc(C(C)C)cc1` (stereo not drawn): the melting point lay within 87.2 to 88.2 °C.
Compound `CC(C)(C)NOC(=O)c1n[nH]c2c(=O)[nH]c3cc(Cl)ccc3c(=O)c12` gave a melting point of 258 °C.
The compound `O=C(CCc1cc2cccnc2n(-c2cccc([N+](=O)[O-])c2)c1=O)c1ccncc1` showed a melting point of 200 to 202 °C.
For the compound `CC12C=CC(=O)C=C1CCC1C2CCC2(C)C1CCC21CC(=O)CO1` (stereo not drawn), the melting point lay within 147 to 153 °C.
